Results: patent US4251543A, “2-(p-Prenylphenyl)propionic acid” (priority 1978, dated 1981)

Columns and labels:
gastric lesions = assay: Gastric lesions after oral administration; type: in vivo, rat (male Wistar); conditions: 100 + 200 mg/Kg, p.o.; for lesion index (sum of areas damaged): mean ± S.E.
Procedure: Anti-inflammatory activity was evaluated by the method of rat paw edema(Winter et al., J. Pharmacol. Exp. Ther., 141, 369(1963)). Six male Wistar strain rats were used in each group and a volume of the each paw was measured three hours after injection of carrageenin. […] The gastric lesions induced were expressed as incidence(number of rats with gastric lesions/number of the rats) and lesion index(sum of areas damaged). The results are shown in Table 3, wherein the values of lesion index and liver weight are mean ± S.E.

[1] = Changes of body weight, repeated oral administration; type: in vivo, rat (male Wister); conditions: for body weight before treatment: before treatment (baseline); for body weight before treatment / body weight after 5 days / body weight after 10 days: mean ± S.E.; for body weight after 5 days / body weight after 10 days: orally
Procedure: (§1) The test compound was suspended in 0.4% CMC solution in an appropriate concentration, and was administered orally once a day at the definite dose (50, 100 or 200 mg/Kg) in each 10 male Wister rats. Additional 10 control rats were received an equivalent volume of the vehicle. […] In those tables, the values of body weight, red blood cell and hemoglobin are mean ± S.E.

liver weight = assay: Liver weight per 100 g of the test rat; type: in vivo, rat (male Wistar); conditions: 100 + 200 mg/Kg, p.o., mean ± S.E.
Procedure: (§2) Anti-inflammatory activity was evaluated by the method of rat paw edema(Winter et al., J. Pharmacol. Exp. Ther., 141, 369(1963)). Six male Wistar strain rats were used in each group and a volume of the each paw was measured three hours after injection of carrageenin.
Immediately after the completion of the test described in Experiment 1, the test compound was orally administered to the test rats in a dose twice the dose administered in Experiment 1, and fasting was continued for 18 hours prior to autopsy and evaluation of gastric lesions and liver weight per 100 g of the test rat. The gastric lesions induced were expressed as incidence(number of rats with gastric lesions/number of the rats) and lesion index(sum of areas damaged). The results are shown in Table 3, wherein the values of lesion index and liver weight are mean ± S.E.

rat paw edema = assay: Anti-inflammatory activity, rat paw edema (carrageenin); type: in vivo, rat (male Wistar); conditions: p.o., three hours after injection of carrageenin
Procedure: as §2

acetic acid writhing = assay: Analgesic activity, acetic acid writhing test; type: in vivo, mouse (male ddY); conditions: p.o.
Excerpt: Male ddY strain mice in groups of ten each were used for the evaluation of analgesic activity by acetic acid writhing test(Koster et al., Federation Proc., 18, 412(1959)).

[2] = tested on: red blood cell and hemoglobin; assay: Hematological findings after 10 days administration; type: in vivo, rat (male Wister); conditions: for hemoglobin / red blood cell: p.o., day one after 10 days administration, mean ± S.E.; for effect on hemoglobin count (in words) / effect on red blood cell count (in words): 50, 100 or 200 mg/Kg orally once a day, 10 days
Procedure: as §1

liver weight (liver weight)	Compound	lesion index (sum of areas damaged) (gastric lesions)	inhibition (%) (rat paw edema; 50 mg/Kg)	inhibition (%) (rat paw edema; 100 mg/Kg)	inhibition (%) (rat paw edema; 200 mg/Kg)	inhibition (%) (acetic acid writhing; 50 mg/Kg)	inhibition (%) (acetic acid writhing; 100 mg/Kg)	inhibition (%) (acetic acid writhing; 200 mg/Kg)	effect on hemoglobin count (in words) [2]	effect on red blood cell count (in words) [2]	also measured
3.56 ± 0.04 g	CC(C)=CCc1ccc(C(C)C(=O)O)cc1 (stereo not shown) [TA-060, 2-[p-(3-methyl-2-butenyl)phenyl]propionic acid]	0 mm^2	35.9%	46.5%	52.1%	37.3%	40.0%	62.7%	no effect	no effect	gastric lesion incidence (number of rats with gastric lesions/number of the rats) (gastric lesions; fasting 18 hours prior to autopsy): 0/12; body weight before treatment ([1]; 50 mg/Kg/day group): 211.5 ± 3.6 gram; body weight after 5 days ([1]; 50 mg/Kg/day): 224.6 ± 3.6 gram; body weight after 10 days ([1]; 50 mg/Kg/day): 239.7 ± 3.2 gram; body weight before treatment ([1]; 100 mg/Kg/day group): 210.0 ± 2.5 gram; body weight after 5 days ([1]; 100 mg/Kg/day): 226.4 ± 2.8 gram; body weight after 10 days ([1]; 100 mg/Kg/day): 238.5 ± 2.3 gram; body weight before treatment ([1]; 200 mg/Kg/day group): 211.7 ± 3.1 gram; body weight after 10 days ([1]; 200 mg/Kg/day, **p <0.001): 238.3 ± 5.1 gram; body weight after 5 days ([1]; 200 mg/Kg/day, *p <0.01): 221.9 ± 4.6 gram; effect on body weight gain (in words) ([1]; 50, 100 or 200 mg/Kg orally once a day, 10 days): no effect; hemoglobin ([2]; 50 mg/Kg): 15.2 ± 0.1 g/dL; red blood cell ([2]; 50 mg/Kg, *p <0.05): 864.2 ± 20.2 × 10^4 /mm^3; hemoglobin ([2]; 100 mg/Kg, ***p <0.001): 15.1 ± 0.2 g/dL; red blood cell ([2]; 100 mg/Kg, **p <0.01): 860.8 ± 9.5 × 10^4 /mm^3; hemoglobin ([2]; 200 mg/Kg, ***p <0.001): 15.0 ± 0.2 g/dL; red blood cell ([2]; 200 mg/Kg, **p <0.01): 857.9 ± 15.2 × 10^4 /mm^3
4.23 ± 0.09 g	CCCCC1C(=O)N(c2ccccc2)N(c2ccccc2)C1=O [phenylbutazone, reference compound]	4.59 ± 1.35 mm^2									
	CC(C)Cc1ccc(C(C)C(=O)O)cc1 (stereo not shown) [ibuprofen, reference compound]		37.9%	49.5%	52.9%	18.6%	37.5%	53.8%	significant decrease	significant decrease	
